This assay has as its system SGK2. Put plainly: Inhibition of kinase activity by SGK2 inhibitory compounds, single concentration. It counts as biochemical. As to conditions: 10 μM compound. The text has this:
A library of compounds was screened for inhibitors of SGK2 and PAK3 activity by assaying phosphorylation of a generic peptide substrate either directly; or indirectly by inhibiting upstream kinase PDK1 from activating the enzyme in vitro. In both cases, the phosphorylated substrate was detected using a specific anti-phospho peptide antibody that is coupled with Eu^3+ Cryptate and XL665 conjugated with streptavidin. […] All initial hits were re-assayed as a dose response series with eight 3-fold dilutions and resulting final concentrations ranged from 0.9 nM to 20 μM.
For the compound `CCOc1ccc(NC(=O)CSc2ncnc3c2oc2ccccc23)cc1` [LDN-0094202], the % Inhibition (commonly the change of the read-out against control, counted positive when it falls) at 10 μM stood at 78%.
Regarding `C=CCc1cccc(C2Nc3cccc4cccc(c34)N2)c1O` [LDN-0045040], the “% Inhibition at 10 μM” value amounted to 89%.
In the case of `O=c1oc2c(O)c(O)cc3c(=O)oc4c(O)c(O)cc1c4c23` [LDN-0097519] it was 85%.
Turning to `O=C(CSc1ncnc2c1oc1ccccc12)Nc1ccccc1` [LDN-0107896], the “% Inhibition at 10 μM” value was 73%.
The value for `Cc1cc(N)c2ccccc2[n+]1CCCCCCCCCC[n+]1c(C)cc(N)c2ccccc21.[Cl-].[Cl-]` [LDN-0096422] was 79%.
In the case of `Oc1cccc2ccc(Nc3ccccn3)nc12` [LDN-0088017] it was 84%; in that of `C=C1c2cccc(O)c2C(=O)C2=C(O)C3(O)C(=O)C(C(N)=O)=C(O)C(N(C)C)C3C(O)C12.Cl` (stereo not drawn) [LDN-0096663], 70%; in that of `CN(C)c1ccc(C=Cc2nc3cc(N)ccc3[nH]2)cc1` [LDN-0060496], 67%.
In the case of `c1coc(C2=Nc3cccc4cccc(c34)N2)c1` [LDN-0088682] it was 80%; in that of `O=C(OCC1OC(OC(=O)c2cc(O)c(O)c(OC(=O)c3cc(O)c(O)c(O)c3)c2)C(OC(=O)c2cc(O)c(O)c(OC(=O)c3cc(O)c(O)c(O)c3)c2)C(OC(=O)c2cc(O)c(O)c(OC(=O)c3cc(O)c(O)c(O)c3)c2)C1OC(=O)c1cc(O)c(O)c(OC(=O)c2cc(O)c(O)c(O)c2)c1)c1cc(O)c(O)c(OC(=O)c2cc(O)c(O)c(O)c2)c1` (stereo not drawn) [LDN-0097728], 85%.
As for `O=c1c(O)cccc2cc(O)c(O)c(O)c12` [LDN-0096727], the “% Inhibition at 10 μM” value came to 94%.
In the case of `CC1=C(C(=O)OCc2ccc3c(c2)OCO3)C(c2cccc(Oc3ccccc3)c2)NC(=O)N1` (stereo not drawn) [LDN-0025562] it was 60%; in that of `Cc1c2ccccc2nc2c(F)c(NC(C)C)c(F)c(F)c12` [LDN-0071567], 88%; in that of `Oc1cc(O)c2c(c1)OC(O)(c1ccc(O)c(O)c1)C(O)C2` (stereo not drawn) [LDN-0096696], 84%.
As to `O=C(O)c1cc2c3c(c1)C1C=CCC1CN3CC1CC=CC21` (stereo not drawn) [LDN-0043107], the “% Inhibition at 10 μM” value is listed as 73%.
In the case of `O=c1c(O)c(-c2ccc(O)c(O)c2)oc2cc(O)cc(O)c12` [LDN-0052529] it was 89%.
In the case of `CN(C)c1ccc(C2=Nc3cccc4cccc(c34)N2)cc1` [LDN-0047445] it was 79%; in that of `O=C(CSc1nnc(-c2ccco2)[nH]1)c1ccc(O)c(O)c1` [LDN-0031187], 67%; in that of `O=C1C=C2CC3(O)COc4c(ccc(O)c4O)C3=C2C=C1O` (stereo not drawn) [LDN-0097524], 93%.
Take `Oc1ccc(-c2csc(NCc3ccco3)n2)cc1` [LDN-0071858]: the “% Inhibition at 10 μM” value was found to be 65%.
The value for `Oc1ccccc1-c1cc(-c2ccco2)[nH]n1` [LDN-0064229] was 85%; that for `Nc1ccc2[nH]c(-c3ccco3)nc2c1` [LDN-0065931] was 78%; that for `O=C(CSc1nnc(-c2ccncc2)[nH]1)c1ccc(O)c(O)c1` [LDN-0031199] was 68%.
For `CCc1cc(-c2n[nH]cc2-c2ccc(Br)cc2)c(O)cc1O` [LDN-0106197], the “% Inhibition at 10 μM” value is given as 67%.
Consider `O=C(O)C1Nc2c(O)cccc2C2C=CCC12` (stereo not drawn) [LDN-0062847], for which the “% Inhibition at 10 μM” value is 95%.
Consider `Cc1ccc2c(=O)c(C(=O)c3ccccc3)cn(CC(=O)Nc3cccc(C)c3C)c2n1` [LDN-0130105], for which the “% Inhibition at 10 μM” value was determined as 70%.
In the case of `Cc1c2ccccc2nc2c(F)c(NCCO)c(F)c(F)c12` [LDN-0071563], the “% Inhibition at 10 μM” value is 88%.
Regarding `CC(C)COC(=O)c1ccc2c(c1)C1C=CCC1C(C(=O)O)N2` (stereo not drawn) [LDN-0068134], the “% Inhibition at 10 μM” value is 84%.
The value for `O=c1c(-c2cc(O)c(O)c(O)c2)coc2cc(O)c(O)c(O)c12` [LDN-0096812] was 97%; that for `CCC(=O)N1CCc2cc(Br)cc(S(=O)(=O)Nc3ccc(Br)cc3)c21` [LDN-0074939] was 67%.
Consider `CNC(=O)Oc1c(Br)cc2sc(=O)oc2c1Br` [LDN-0072860], for which the “% Inhibition at 10 μM” value was 72%.
Turning to `O=C(O)c1cc(O)c(=O)c2c(O)c(O)ccc2c1` [LDN-0096503], the “% Inhibition at 10 μM” value turned out to be 73%.
Turning to `O=c1cc(-c2ccccc2)oc2cc(O)c(O)c(O)c12` [LDN-0096673], the “% Inhibition at 10 μM” value came to 67%.
The value for `CCOC(=O)C1C(=O)NC(SCC(=O)Nc2ccc(Br)cc2)=C(C#N)C1c1ccccc1OCC` (stereo not drawn) [LDN-0028584] was 68%; that for `CN(C)c1ccc(NC(=O)Nc2cccs2)cc1` [LDN-0058882] was 61%; that for `O=c1cc(C2Oc3cc(O)cc(O)c3CC2O)cc2c(C3Oc4cc(O)cc(O)c4CC3O)cc(O)c(O)c2c1O` (stereo not drawn) [LDN-0096771] was 89%.
Turning to `O=c1c(O)cccc2ccc(O)c(O)c12` [LDN-0096728], the “% Inhibition at 10 μM” value is given as 87%.
In the case of `O=C(O)C1Nc2ccc(Br)cc2C2C=CCC12` (stereo not drawn) [LDN-0061702] it was 92%.
In the case of `Cc1ccc(C)n1-c1ccc(O)c(C(=O)O)c1` [LDN-0062564] it was 90%; in that of `O=C(Nc1ccc(O)c(-c2nc3ccccc3s2)c1)c1cccc(N2C(=O)CCC2=O)c1` [LDN-0041592], 74%; in that of `O=C(Nc1cccc(-c2cscn2)c1)C1CCN(Cc2cccc(-c3ccco3)c2)CC1` [LDN-0117557], 60%.
The value for `Oc1ccc(N=Cc2ccc[nH]2)cc1N=Cc1ccc[nH]1` [LDN-0085170] was 62%; that for `Nc1ccc2[nH]c(C=Cc3ccc(Cl)cc3)nc2c1` [LDN-0060498] was 68%.
Turning to `Oc1cc(O)c2c(c1)OC(c1cc(O)c(O)c(O)c1)C(O)C2` (stereo not drawn) [LDN-0097128], the “% Inhibition at 10 μM” value was determined as 68%.
For `CC(=O)Oc1cc(-c2coc3cc(OC(C)=O)c(OC(C)=O)c(OC(C)=O)c3c2=O)cc(OC(C)=O)c1OC(C)=O` [LDN-0096738], the “% Inhibition at 10 μM” value amounted to 96%.
In the case of `O=C(OC1Cc2c(O)cc(O)cc2OC1c1ccc(O)c(O)c1)c1cc(O)c(O)c(O)c1` (stereo not drawn) [LDN-0096721], the “% Inhibition at 10 μM” value is recorded as 93%.
The value for `O=C(C=Cc1ccco1)c1ccc2c(c1)C1C=CCC1C(c1ccc(Cl)cc1)N2` (stereo not drawn) [LDN-0033450] was 94%; that for `C1=CC2c3cccc4c3N(CC2C1)CC1CC=CC41` (stereo not drawn) [LDN-0050317] was 69%; that for `O=C(NCCCN1CCCCCC1)c1ccc(Cn2c(=S)[nH]c3ccc(Br)cc3c2=O)cc1` [LDN-0036382] was 67%.
For the compound `O=C1CC(N2CCCCC2)C=C1Nc1ccc(F)cc1` (stereo not drawn) [LDN-0074168], the “% Inhibition at 10 μM” value came to 73%.
With `Cc1sc(NC(=O)COc2cccc(F)c2)c(C#N)c1C` [LDN-0086947], the “% Inhibition at 10 μM” value was found to be 67%.
The value for `N#Cc1c(N)nc(SCC(=O)Nc2ccc([N+](=O)[O-])c3ccccc23)c(C#N)c1-c1ccco1` [LDN-0028673] was 71%; that for `O=C(O)C1C2CC=CC2c2cc(Br)cc3c2N1CC1CC=CC31` (stereo not drawn) [LDN-0088050] was 67%.
The value for `Cc1cc2c3c(c(Br)cc(S(=O)(=O)O)c3n1)C(=O)c1ccccc1-2` [LDN-0042012] was 87%.

Values taken from patent US20120208204A1, “Compositions and Methods for Inhibiting Tumor Growth” (The Brigham and Women's Hospital, Inc., priority 2009, published 2012).
